The source of these data is paper PMC7015960, “Effect of rifampin and itraconazole on the pharmacokinetics of zanubrutinib (a Bruton's tyrosine kinase inhibitor) in Asian and non-Asian healthy subjects” (Cancer Chemotherapy and Pharmacology, 2019).

For data set [1] the following is noted: cited from earlier work.
A short description of data set [2]: Part B: single-dose PK of 20 mg zanubrutinib alone and with steady-state itraconazole (CYP3A inhibition) in healthy subjects. Format: in vivo, human. The settings on record: for CL/F / AUC(0-inf) / Cmax / half-life / Vd/F: geometric mean (CV%); for AUC(0-inf) / Cmax / half-life / Vd/F / Tmax: both sexes, human, plasma; for Vd/F: read-out: Vz/F; for Tmax: median (min–max). Here is the method:
(§1) This was an open-label, parallel-group, fixed-sequence study in healthy male and female subjects conducted in two parts, Part A and Part B. Part A investigated the effect of CYP3A induction by steady-state rifampin on the single-dose PK of 320 mg zanubrutinib, and Part B investigated the effect of CYP3A inhibition by steady-state itraconazole on the single-dose PK of 20 mg zanubrutinib.
(§2) In Part A, participants received a single oral dose of zanubrutinib (320 mg) in the fasted state on Day 1 and Day 10. Oral rifampin (600 mg/day, Rifampin, VersaPharm Inc., Marietta, GA, USA) was administered once daily in the fasted state on Days 3 through 11. In Part B, participants received a single oral dose of zanubrutinib (20 mg) in the fasted state on Day 1 and Day 6. Oral itraconazole (200 mg/day, Sporanox® capsules, Janssen Pharmaceuticals, Titusville, NJ, USA) was administered once-daily approximately 30 min after completing a meal on Days 3, 4, 5, and 7, and in the fasted state on Day 6.
(§3) Serial blood samples were collected with zanubrutinib alone and when combined with rifampin or itraconazole for the measurement of zanubrutinib plasma concentrations. Plasma samples were collected at predose, 0.5, 1, 1.5, 2, 3, 4, 6, 8, 12, 24, 36, and 48 h postdose on Day 1 and Day 10 in Part A and on Day 1 and Day 6 in Part B.
(§4) Plasma concentrations of zanubrutinib were determined using validated high-performance liquid chromatography coupled with tandem mass spectrometry (HPLC–MS/MS) (Xenobiotic Laboratories, NJ, USA). Protein precipitation was utilized to extract the analyte and internal standard from human plasma containing dipotassium ethylenediaminetetraacetic acid (K2EDTA) as anticoagulant. The analytical method utilized a reversed-phase HPLC column (Supelco Ascentis Express C18 20 × 2.1 mm, 2.7 µm) with a gradient flow of 0.1% formic acid in water (Mobile Phase A) and methanol:acetonitrile (1:1) (Mobile Phase B) at a rate of 0.5 mL/min. The analyte and internal standard were detected using an AB Sciex API-4000 LC–MS/MS system equipped with a positive ESI ion detection.
(§5) The calibration range of zanubrutinib in the assay was 1.00 to 1000 ng/mL using a 50 μL aliquot of plasma, with the lower limit of quantification of 1.00 ng/mL.
(§6) Noncompartmental PK analysis was conducted using the Phoenix® WinNolin® software (Version 6.4). PK parameters were derived for zanubrutinib alone and in combination with rifampin or itraconazole, including area under the plasma concentration–time curve (AUC), maximum observed plasma concentration (Cmax), time of the maximum observed plasma concentration (tmax), apparent terminal elimination half-life (t1/2), apparent total oral clearance (CL/F), and apparent volume of distribution during the terminal elimination phase (Vz/F). Log-transformed area under the curve from time 0 extrapolated to time t (AUC0–t), area under the curve from time 0 extrapolated to infinite time (AUC0–∞), and Cmax of zanubrutinib were analyzed using a mixed model for each part of the study, including treatments as a fixed effect and subject as a random effect. Estimates of geometric mean ratios (GMRs) and the corresponding 90% confidence intervals (CIs) were derived for the comparisons of AUC0–∞, and Cmax as follows:
Part B: zanubrutinib coadministration with itraconazole (test) versus zanubrutinib alone (reference).

The nature of data set [3]: Safety and tolerability (TEAEs, laboratory, vital signs, QTcF) in healthy subjects, Parts A and B. The class given is in vivo, human. The source says: Treatment-emergent adverse events (TEAEs) are summarized by part, treatment, National Cancer Institute Common Terminology Criteria for Adverse Events (v4.03) grade, and relationship to study drugs (zanubrutinib, rifampin, and itraconazole). The frequency of TEAEs is summarized by part, treatment, and Medical Dictionary for Regulatory Activities (MedDRA) system organ class (SOC) and preferred term. The summary and frequency TEAE tables are presented for all causalities and for those TEAEs considered related to the study drugs.

Data set [4] relates to cytochrome P450 3A (CYP3A). Details: method as in unpublished data. The settings on record: human liver microsomes; ref unpublished data; cited from earlier work.
The conditions of data set [5]: cited from earlier work. This is another data set of the same source.
The nature of data set [6]: Part A: single-dose PK of 320 mg zanubrutinib alone and with steady-state rifampin (CYP3A induction) in healthy subjects. The settings on record: for CL/F / AUC(0-inf) / Cmax / half-life / Vd/F: geometric mean (CV%); for AUC(0-inf) / Cmax / half-life / Vd/F / Tmax: both sexes, human, plasma; for Vd/F: read-out: Vz/F; for Tmax: median (min–max). Format: in vivo, human. As to the method:
as §1, §2, §3, §4, §5, §6
Part A: zanubrutinib coadministration with rifampin (test) versus zanubrutinib alone (reference),

Setting [7] is: 20 mg zanubrutinib with 200 mg itraconazole vs alone.
The mark [8] stands for this setting: oral, 20 mg zanubrutinib + 200 mg itraconazole QD, Day 6.
Setting [9] is: oral, 20 mg, Asian subjects, Part B Day 1, 20 mg zanubrutinib alone.
The mark [10] stands for this setting: oral, 20 mg, Non-Asian subjects, Part B Day 1, 20 mg zanubrutinib alone.
The mark [11] stands for this setting: oral, Asian subjects, Part B Day 6, zanubrutinib + itraconazole.
[12] abbreviates: oral, Non-Asian subjects, Part B Day 6, zanubrutinib + itraconazole.
Where [13] appears, read: oral, 20 mg zanubrutinib + 200 mg itraconazole QD.
The mark [14] stands for this setting: zanubrutinib in combination with itraconazole versus zanubrutinib alone.
Where [15] appears, read: patients with B-cell malignancies.
Setting [16] is: 320 mg zanubrutinib with 600 mg rifampin vs alone.
The mark [17] stands for this setting: oral, 320 mg zanubrutinib + 600 mg rifampin QD, Day 10.
The mark [18] stands for this setting: oral, 320 mg, Asian subjects, Part A Day 1, 320 mg zanubrutinib alone.
The mark [19] stands for this setting: oral, 320 mg, Non-Asian subjects, Part A Day 1, 320 mg zanubrutinib alone.
[20] abbreviates: oral, Asian subjects, Part A Day 10, zanubrutinib + rifampicin.
The mark [21] stands for this setting: oral, Non-Asian subjects, Part A Day 10, zanubrutinib + rifampicin.
[22] abbreviates: oral, 320 mg zanubrutinib + 600 mg rifampin QD.
Setting [23] is: oral, 320 mg zanubrutinib alone.
Setting [24] is: zanubrutinib in combination with rifampin versus zanubrutinib alone.

Where “and” joins values, the source holds several entries; their conditions need not be identical. Identical values can stand only once. Like-named read-outs stand apart in the source and are kept apart here.

Take `C=CC(=O)N1CCC[C@@H](n2nc(-c3ccc(Oc4ccccc4)cc3)c3c(N)ncnc32)C1` [ibrutinib]: the “increase in AUC with ketoconazole” value in data set [1] is listed as 24 fold.
Take `C=CC(=O)N1CCC([C@@H]2CCNc3c(C(N)=O)c(-c4ccc(Oc5ccccc5)cc4)nn32)CC1` [zanubrutinib, Zanubrutinib]: the CL/F in data set [2] (20 mg zanubrutinib + 200 mg itraconazole QD) is 29 (31) L/h; in data set [2] (20 mg zanubrutinib alone), 109 (29) L/h; in data set [6] (320 mg zanubrutinib + 600 mg rifampin QD), 1249 L/h and 1249 (43) L/h; in data set [6] (320 mg zanubrutinib alone), 93 L/h and 93 (36) L/h. In addition, the “PK, Asian versus non-Asian subjects” value in data set [2] (20 mg zanubrutinib alone on Day 1 and with 200 mg itraconazole on Day 6) is “comparable between Asian and non-Asian subjects”. The “increase of AUC0–∞ on coadministration with itraconazole” value in data set [2] (setting [7]) is 3.8 fold and < 4 fold. Further, the “increase of Cmax on coadministration with itraconazole” value in data set [2] (setting [7]) was determined as 2.6 fold. In addition, the AUC(0-inf) is 693 ng·h/mL in data set [2] (setting [8]); 174 ng·h/mL in data set [2] (setting [9]); 192 ng·h/mL in data set [2] (setting [10]); 694 ng·h/mL in data set [2] (setting [11]); 693 ng·h/mL in data set [2] (setting [12]); 184 ng·h/mL in data set [2] (po, 20 mg, 20 mg zanubrutinib alone, single oral dose, fasted, Day 1). The AUC(0-inf) in data set [6] (setting [17]) turned out to be 261 ng·h/mL; in data set [6] (setting [18]) it was 3460 ng·h/mL; in data set [6] (setting [19]) it was 3410 ng·h/mL; in data set [6] (setting [20]) it was 213 ng·h/mL; in data set [6] (setting [21]) it was 293 ng·h/mL; in data set [6] (po, 320 mg, 320 mg zanubrutinib alone, single oral dose, fasted, Day 1), 3520 ng·h/mL. Moreover, the Cmax is 122 ng/mL in data set [2] (setting [8]); 48 ng/mL in data set [2] (oral, 20 mg, 20 mg zanubrutinib alone, Day 1); 50 ng/mL in data set [2] (setting [9]); 46 ng/mL in data set [2] (setting [10]); 124 ng/mL in data set [2] (setting [11]); 120 ng/mL in data set [2] (setting [12]). Also, the Cmax in data set [6] (setting [17]) came out at 42 ng/mL; in data set [6] (oral, 320 mg, 320 mg zanubrutinib alone, Day 1), 532 ng/mL; in data set [6] (setting [18]), 543 ng/mL; in data set [6] (setting [19]), 525 ng/mL; in data set [6] (setting [20]) it was 41 ng/mL; in data set [6] (setting [21]), 43 ng/mL. The half-life was 4.3 h in data set [2] (setting [13]); 2.2 h in data set [2] (oral, 20 mg zanubrutinib alone, terminal phase may not be adequately characterized); 4.8 h in data set [6] (setting [22]); 6.8 h in data set [6] (setting [23]). In addition, the Vd/F in data set [2] (setting [13]) came out at 178 L; in data set [2] (oral, 20 mg zanubrutinib alone) it was 341 L; in data set [6] (setting [22]), 8660 L; in data set [6] (setting [23]), 914 L. Also, the Tmax in data set [2] (setting [13]) was 2 h; in data set [2] (oral, 20 mg zanubrutinib alone), 1.5 h; in data set [6] (setting [22]), 2 h; in data set [6] (setting [23]), 2 h. The “AUC0–∞ geometric ratio of adjusted means (90% CI)” value is 378% and 378 (344, 415) % in data set [2] (setting [14]); 7.4% and 7.4 (6.0, 9.1) % in data set [6] (setting [24]). The “Cmax geometric ratio of adjusted means (90% CI)” value in data set [2] (setting [14]) was 257% and 257 (226, 291) %; in data set [6] (setting [24]) it was 7.9% and 7.9 (6.6, 9.5) %. For the same compound, the “overall incidence of TEAEs” value in data set [3] (both Part A and Part B) is “less than 30%”. Further, in data set [3] (both parts, NCI CTCAE v4.03), the “severity of TEAEs / SAEs / discontinuation” value was “no subject reported a TEAE higher than Grade 2 or an SAE, and no subject discontinued due to a TEAE”. Besides, the QTcF entry in data set [3] (during the study) is listed as “No subject had a QTcF value > 450 ms or an increase from baseline in QTcF of > 60 ms”. For the same compound, the tolerability entry is reported as “well tolerated” in data set [3] (single doses of 320 mg and 20 mg zanubrutinib alone or with 600 mg rifampin / 200 mg itraconazole, healthy subjects); “generally well tolerated” in data set [5] (patients with B-cell malignancies, total daily doses 40 to 320 mg). Further, the “pathway of oxidative metabolism” value in data set [4] is on record as “largely mediated through the cytochrome P450 3A (CYP3A) pathway”. Besides, in data set [5] (patients with B-cell malignancies, PK generally assessed only for 8 h post-dose), the mean half-life was 2 to 4 h. In addition, the “accumulation after repeated dosing” value in data set [5] (setting [15]) is given as “minimal accumulation”. The “time of Cmax after oral dosing” value in data set [5] (setting [15]) is on record as “approximately 2 h”. In data set [5] (total daily doses of 40–320 mg), the “dose dependence of exposure” value is listed as “increased in a dose-proportional manner”. The “PK parameters, Asian versus non-Asian subjects” value in data set [6] (320 mg zanubrutinib alone on Day 1 and with 600 mg rifampin on Day 10) is “comparable between Asian and non-Asian subjects”. The “decrease of AUC0–∞ on coadministration with rifampin” value in data set [6] (setting [16]) was 13.5 fold. In addition, the “decrease of Cmax on coadministration with rifampin” value in data set [6] (setting [16]) was determined as 12.6 fold.
Regarding `CC#CC(=O)N1CCC[C@H]1c1nc(-c2ccc(C(=O)Nc3ccccn3)cc2)c2c(N)nccn12` [acalabrutinib], in data set [1], the “decrease in AUC with rifampin” value is recorded as 77% and the “increase in AUC with itraconazole” value is listed as 5.1 fold.
